# Results reported in publication PMC8837635, “Structural and functional analyses explain Pea KAI2 receptor diversity and reveal stereoselective catalysis during signal perception” (Communications Biology, 2022).
# Key:
# [1] = target: T1, RMS3 (Lathyrus oleraceus, UniProt A0A109QYD3); assay: hydrolysis by purified protein, UPLC-UV; assay type: biochemical
# T1 sequence (A0A109QYD3 1-267): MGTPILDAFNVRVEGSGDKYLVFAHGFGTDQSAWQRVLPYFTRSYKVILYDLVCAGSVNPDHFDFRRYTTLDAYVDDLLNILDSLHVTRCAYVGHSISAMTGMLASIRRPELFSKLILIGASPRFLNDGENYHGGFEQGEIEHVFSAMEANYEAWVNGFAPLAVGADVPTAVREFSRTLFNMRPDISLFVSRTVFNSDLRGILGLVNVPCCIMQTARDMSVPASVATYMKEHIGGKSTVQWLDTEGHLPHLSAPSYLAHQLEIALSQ
# [2] = target: T2, PsKAI2A (Lathyrus oleraceus, UniProt A0A9D4YJ13); assay: intrinsic tryptophan fluorescence Kd; hydrolysis by UPLC; MS covalent adduct; assay type: binding
# T2 construct: gene KIW84_024963; PsKAI2A.2 (272 aa)
# T2 sequence (A0A9D4YJ13 1-264 limits assumed): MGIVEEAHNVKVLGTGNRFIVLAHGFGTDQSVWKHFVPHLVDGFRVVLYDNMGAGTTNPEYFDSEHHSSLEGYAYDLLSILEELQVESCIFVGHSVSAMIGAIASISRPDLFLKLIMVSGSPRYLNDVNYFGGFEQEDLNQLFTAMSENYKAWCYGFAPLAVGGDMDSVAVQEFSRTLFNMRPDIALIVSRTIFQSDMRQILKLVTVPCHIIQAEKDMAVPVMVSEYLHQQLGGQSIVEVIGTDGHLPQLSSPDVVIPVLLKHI
# [3] = target: T3, AtD14 (Arabidopsis thaliana, UniProt Q9SQR3); assay: hydrolysis by purified protein, UPLC-UV; assay type: biochemical
# T3 construct: gene D14
# T3 sequence (Q9SQR3 1-267): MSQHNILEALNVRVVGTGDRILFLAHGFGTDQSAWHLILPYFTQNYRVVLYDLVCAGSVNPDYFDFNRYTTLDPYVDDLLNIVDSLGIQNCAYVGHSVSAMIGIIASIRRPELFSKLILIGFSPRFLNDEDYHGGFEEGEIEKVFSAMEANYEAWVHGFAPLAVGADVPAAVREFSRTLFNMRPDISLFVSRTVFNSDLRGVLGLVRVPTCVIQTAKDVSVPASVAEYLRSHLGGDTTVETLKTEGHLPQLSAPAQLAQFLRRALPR
# [4] = target: T4, PsKAI2B (Lathyrus oleraceus, UniProt A0A8X6EGX8); assay: intrinsic tryptophan fluorescence Kd; DSF shift; hydrolysis by UPLC; MS covalent adduct; assay type: binding
# T4 sequence (A0A8X6EGX8 1-270): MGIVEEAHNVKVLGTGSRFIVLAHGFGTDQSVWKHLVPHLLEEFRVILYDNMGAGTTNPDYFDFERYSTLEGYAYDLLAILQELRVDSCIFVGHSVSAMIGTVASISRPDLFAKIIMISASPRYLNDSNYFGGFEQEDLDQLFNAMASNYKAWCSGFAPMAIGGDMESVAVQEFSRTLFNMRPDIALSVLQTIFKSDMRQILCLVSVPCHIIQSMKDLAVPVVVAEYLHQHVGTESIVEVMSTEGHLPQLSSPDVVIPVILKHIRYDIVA
# [5] = target: T4, PsKAI2B; assay: co-crystal structure with (–)-GR24 at […] Å; hydrolysis product trapped in catalytic site; MS +[…] Da adduct on H246; assay type: binding
Compound,"hydrolysis by purified protein, UPLC-UV [1]",Kd [2],"hydrolysis by purified protein, UPLC-UV [3]",Kd [4],co-crystal structure with (-)-GR24 at 2.0 Å; hydrolysis product trapped in catal [5]
CC1=C[C@@H](O/C=C2/C(=O)O[C@H]3c4ccccc4C[C@@H]23)OC1=O [(–)-GR24],AtD14 and PsRMS3 (Pisum D14) similarly bind and hydrolyze both the isolated (–)- and (+)-GR24 stereoisomers,115 ± 9.87 µM,AtD14 and PsRMS3 (Pisum D14) similarly bind and hydrolyze both the isolated (–)- and (+)-GR24 stereoisomers,89.4 ± 12.1 µM,–
"CC1=CC(O)OC1=O [D-OH, 5-hydroxy-3-methylbutenolide]",–,–,–,–,"5-hydroxy-3-methylbutenolide (D-OH ring), resulting from the (–)-GR24 cleavage, is trapped in the catalytic site"
